# Laboratory results: US8143270B2, “2-amino 1H-in-imidazo ring systems and methods” (3M Innovative Properties Company, priority 2004, dated 2012)
# Structures can show the parent of a compound that is named as a salt.
# Test system: mouse macrophage cell line Raw 264.7
# Assay: TNF-α inhibition in mouse cells
# Type: cell-based
# Conditions: Raw 264.7 cells stimulated by lipopolysaccharide (LPS); single concentration 5 μM or dose response 0.03-10 μM; TNF-α by ELISA
# Experimental: The compounds of Formulas I, II, III, IV, V, VI, VII, and VIII are useful as immune response modifiers (IRMs) due to their ability to modulate cytokine biosynthesis (e.g., induce or inhibit the biosynthesis or production of one or more cytokines) and otherwise modulate the immune response when administered to animals. Compounds can be tested per the test procedures described in the Examples Section. Compounds can be tested for induction of cytokine biosynthesis by incubating human peripheral blood mononuclear cells (PBMC) in a culture with the compound(s) at a concentration range of 30 to 0.014 μM and analyzing for interferon (α) or tumor necrosis factor (α) in the culture supernatant. Compounds can be tested for inhibition of cytokine biosynthesis by incubating mouse macrophage cell line Raw 264.7 in a culture with the compound(s) at a single concentration of, for example, 5 μM and analyzing for tumor necrosis factor (α) in the culture supernatant. The ability to modulate cytokine biosynthesis, for example, induce the biosynthesis of one or more cytokines, makes the compounds useful in the treatment of a variety of conditions such as viral diseases and neoplastic diseases, that are responsive to such changes in the immune response. […]
# (§1) Raw cells (ATCC) are harvested by gentle scraping and then counted. […]
# The compounds are solubilized in dimethyl sulfoxide (DMSO). […] LPS (Lipopolysaccaride from Salmonella typhimurium, Sigma-Aldrich) is diluted with colorless RPMI to the EC70 concentration as measured by a dose response assay. […]
# Following the incubation the supernatant is removed with a pipet. TNF-α concentration is determined by ELISA using a mouse TNF-α kit (from Biosource International, Camarillo, Calif.). […]
# as §1
# The compounds are solubilized in dimethyl sulfoxide (DMSO). […] LPS (Lipopolysaccaride from Salmonella typhimurium, Sigma-Aldrich) is diluted with colorless RPMI to the EC70 concentration as measured by dose response assay. […]
row,SMILES,inhibition of production of tumor necrosis factor α (TNF-α)
1,"COCCCNc1nc2c(N)nc3ccccc3c2n1CC(C)(C)O [Example 9, 1-{4-Amino-2-[(3-methoxypropyl)amino]-1H-imidazo[4,5-c]quinolin-1-yl}-2-methylpropan-2-ol]",inhibiting production of tumor necrosis factor α (TNF-α)
2,"COCCNc1nc2c(N)nc3ccccc3c2n1CC(C)(C)O [Example 8, 1-{4-Amino-2-[(2-methoxyethyl)amino]-1H-imidazo[4,5-c]quinolin-1-yl}-2-methylpropan-2-ol]",inhibiting production of tumor necrosis factor α (TNF-α)
3,"CCNc1nc2c(N)nc3ccccc3c2n1CC(C)(C)O [Example 7, 1-[4-Amino-2-(ethylamino)-1H-imidazo[4,5-c]quinolin-1-yl]-2-methylpropan-2-ol]",inhibiting production of tumor necrosis factor α (TNF-α)

# Test system: not given
# Assay: not given
# Conditions: not given
row,SMILES,melting point
1,"CCNc1nc2c(N)nc3ccccc3c2n1CC(C)C [Example 6, N^2-Ethyl-1-(2-methylpropyl)-1H-imidazo[4,5-c]quinoline-2,4-diamine]",188 to 190 °C
2,"CC(C)(Cn1c(N)nc2c(N)nc3ccccc3c21)NS(C)(=O)=O [Example 3, N-[2-(2,4-Diamino-1H-imidazo[4,5-c]quinolin-1-yl)-1,1-dimethylethyl]methanesulfonamide]",> 230 °C
3,"COCCCNc1nc2c(N)nc3ccccc3c2n1CC(C)(C)O [Example 9, 1-{4-Amino-2-[(3-methoxypropyl)amino]-1H-imidazo[4,5-c]quinolin-1-yl}-2-methylpropan-2-ol]",209 to 210 °C
4,"CC(C)Cn1c(N)nc2c(N)nc3ccccc3c21 [Example 1, 1-(2-Methylpropyl)-1H-imidazo[4,5-c]quinoline-2,4-diamine]",> 250 °C
5,"CC(C)(O)Cn1c(N)nc2c(N)nc3ccccc3c21 (as salt: hydrobromid) [Example 2, 1-(2,4-Diamino-1H-imidazo[4,5-c]quinolin-1-yl)-2-methylpropan-2-ol hydrobromide]",> 230 °C
6,"COCCNc1nc2c(N)nc3ccccc3c2n1CC(C)(C)O [Example 8, 1-{4-Amino-2-[(2-methoxyethyl)amino]-1H-imidazo[4,5-c]quinolin-1-yl}-2-methylpropan-2-ol]",176 to 178 °C
7,"CCNc1nc2c(N)nc3ccccc3c2n1CC(C)(C)O [Example 7, 1-[4-Amino-2-(ethylamino)-1H-imidazo[4,5-c]quinolin-1-yl]-2-methylpropan-2-ol]",233 to 235 °C
8,"Nc1nc2ccccc2c2c1nc(N)n2Cc1ccccc1 [Example 4, 1-Benzyl-1H-imidazo[4,5-c]quinoline-2,4-diamine]",254 to 256 °C

# Next, values leading:
row,melting point,SMILES
1,135 to 140 °C,"C[C@@H](c1ccccc1)n1c(N)nc2c(N)nc3ccccc3c21 [Example 45, 1-[(1S)-1-Phenylethyl]-1H-imidazo[4,5-c]quinoline-2,4-diamine]"
2,> 270 °C,"CC(C)(O)Cn1c(N)nc2c(N)nc3c(c21)CCCC3 [Example 18, 1-(2,4-Diamino-6,7,8,9-tetrahydro-1H-imidazo[4,5-c]quinolin-1-yl)-2-methylpropan-2-ol]"
3,156 to 160 °C,"C[C@H](c1ccccc1)n1c(N)nc2c(N)nc3ccccc3c21 [Example 44, 1-[(1R)-1-Phenylethyl]-1H-imidazo[4,5-c]quinoline-2,4-diamine]"
4,251 °C,"CC(C)(F)Cn1c(N)nc2c(N)nc3ccccc3c21 [Example 43, 1-(2-Fluoro-2-methylpropyl)-1H-imidazo[4,5-c]quinoline-2,4-diamine]"
5,295 °C (dec.),"Nc1nc2ccccc2c2c1nc(N)n2CC1(O)CCC1 [Example 46, 1-[(2,4-Diamino-1H-imidazo[4,5-c]quinolin-1-yl)methyl]cyclobutanol]"
6,168 to 170 °C,"CCNc1nc2c(N)nc(C)c(C)c2n1CC(C)C [Example 16, N^2-Ethyl-6,7-dimethyl-1-(2-methylpropyl)-1H-imidazo[4,5-c]pyridine-2,4-diamine]"
7,255 to 258 °C (dec.),"COC(=O)Nc1nc2c(N)nc3ccccc3c2n1CC(C)(C)O [Example 181, Methyl [4-amino-1-(2-hydroxy-2-methylpropyl)-1H-imidazo[4,5-c]quinolin-2-yl]carbamate]"
